Reference: publication PMC11180509 (The Journal of Clinical Endocrinology and Metabolism, 2024)

Assay: Plasma concentration of intact GIP after subcutaneous GIP injection
Assay type: in vivo, human

- Time until plasma intact GIP returned to basal level (fasting men with T2D, n = 10, 200 µg GIP subcutaneous bolus): about 150 minutes
- Tmax (male, human, plasma, sc, 200 ug): 30 min
- Cmax (male, human, plasma, sc, 200 ug, SEM): 0.055 ± 0.0058 nM
SMILES: CC[C@H](C)[C@H](NC(=O)[C@H](CO)NC(=O)[C@H](Cc1ccc(O)cc1)NC(=O)[C@H](CC(=O)O)NC(=O)[C@H](CO)NC(=O)[C@@H](NC(=O)[C@H](Cc1ccccc1)NC(=O)[C@@H](NC(=O)CNC(=O)[C@H](CCC(=O)O)NC(=O)[C@H](C)NC(=O)[C@@H](N)Cc1ccc(O)cc1)[C@@H](C)O)[C@@H](C)CC)C(=O)N[C@@H](C)C(=O)N[C@@H](CCSC)C(=O)N[C@@H](CC(=O)O)C(=O)N[C@@H](CCCCN)C(=O)N[C@H](C(=O)N[C@@H](Cc1c[nH]cn1)C(=O)N[C@@H](CCC(N)=O)C(=O)N[C@@H](CCC(N)=O)C(=O)N[C@@H](CC(=O)O)C(=O)N[C@@H](Cc1ccccc1)C(=O)N[C@H](C(=O)N[C@@H](CC(N)=O)C(=O)N[C@@H](Cc1c[nH]c2ccccc12)C(=O)N[C@@H](CC(C)C)C(=O)N[C@@H](CC(C)C)C(=O)N[C@@H](C)C(=O)N[C@@H](CCC(N)=O)C(=O)N[C@@H](CCCCN)C(=O)NCC(=O)N[C@@H](CCCCN)C(=O)N[C@@H](CCCCN)C(=O)N[C@@H](CC(N)=O)C(=O)N[C@@H](CC(=O)O)C(=O)N[C@@H](Cc1c[nH]c2ccccc12)C(=O)N[C@@H](CCCCN)C(=O)N[C@@H](Cc1c[nH]cn1)C(=O)N[C@@H](CC(N)=O)C(=O)N[C@H](C(=O)N[C@H](C(=O)N[C@@H](CCC(N)=O)C(=O)O)[C@@H](C)O)[C@@H](C)CC)C(C)C)[C@@H](C)CC [GIP, Human GIP(1-42)]
